Source: publication PMC3440873 (Bioorganic & medicinal chemistry letters, 2011)

What was measured:
[1] = system: MDA-MB-231 breast adenocarcinoma cells; settings: MDA-MB-231 cells; for TRAIL sensitizing activity: compound 4 h, then TRAIL 20 h (Fig. 4)
BIR2 domain of XIAP = BIR2 domain of XIAP (Homo sapiens, UniProt P98170); settings: from Ki values
Chain of BIR2 domain of XIAP (P98170 124-240 limits assumed): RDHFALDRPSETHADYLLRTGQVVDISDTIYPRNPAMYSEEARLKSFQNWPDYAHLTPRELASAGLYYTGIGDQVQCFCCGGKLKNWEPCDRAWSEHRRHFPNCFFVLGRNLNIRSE

| Compound | TRAIL sensitizing activity [1] | selectivity for BIR2 vs. BIR3 (BIR2 domain of XIAP) | LD50 of TRAIL ([1]; TRAIL alone) |
| --- | --- | --- | --- |
| CN[C@@H](C)C(=O)N[C@H](C(=O)N1CCC[C@H]1C(=O)N[C@@H]1CCCc2ccccc21)C(C)C [Compound 9f] | strong TRAIL sensitizing activity | – | – |
| CN[C@@H](C)C(=O)N[C@H](C(=O)N1CCC[C@H]1C(=O)NNc1ccccc1)C(C)C [Compound 9j] | slightly less potent | three-fold selective | – |
| TRAIL: apoptosis-inducing agent added to MDA-MB-231 cells at varying concentrations | – | – | could not be achieved |
